Reference: ChEMBL document CHEMBL3885881, “DrugMatrix”

Species: Rattus norvegicus
Assay: DrugMatrix - Regimen: Daily Repeat
Assay type: toxicity, organism-based, Sprague-Dawley
Parameters: regimen Daily Repeat, gender Male, age 6-8 weeks
Settings: in vivo, iv, vehicle 100 % SALINE; for ABSOLUTE BASOPHIL / ABSOLUTE EOSINOPHIL / ABSOLUTE LYMPHOCYTE / ABSOLUTE MONOCYTE / ABSOLUTE SEGMENTED NEUTROPHIL / BASOPHIL / EOSINOPHIL / ERYTHROCYTE COUNT / HEMATOCRIT / HEMOGLOBIN / LEUKOCYTE COUNT / LYMPHOCYTE / MEAN CORPUSCULAR HEMOGLOBIN / MEAN CORPUSCULAR HEMOGLOBIN CONCENTRATION / MEAN CORPUSCULAR VOLUME / MONOCYTE / NEUTROPHIL / NUCLEATED RED BLOOD CELLS: tissue Blood; for ALANINE AMINOTRANSFERASE / ALKALINE PHOSPHATASE / BLOOD UREA NITROGEN / CARBON DIOXIDE / CHOLESTEROL / CREATINE PHOSPHOKINASE / CREATININE / GLUCOSE / LACTATE DEHYDROGENASE / LIPASE / SODIUM / TOTAL BILIRUBIN / TOTAL PROTEIN / URIC ACID / ASPARTATE AMINOTRANSFERASE: tissue Plasma
[1] = 0 mg/kg, 72 h, dose level Control, time 3 day
[2] = 0 mg/kg, 120 h, dose level Control, time 5 day
[3] = 3 mg/kg, 72 h, dose level High, time 3 day

For `COc1cccc2c1C(=O)c1c(O)c3c(c(O)c1C2=O)C[C@@](O)(C(=O)CO)C[C@@H]3O[C@H]1C[C@H](N)[C@H](O)[C@H](C)O1` [DOXORUBICIN], the “ABSOLUTE BASOPHIL” value [1] was 0 CELLS/uL, the “ABSOLUTE EOSINOPHIL” value [1] was 0 CELLS/uL and the “ABSOLUTE LYMPHOCYTE” value [1] was 7855.5 CELLS/uL. The “ABSOLUTE MONOCYTE” value [1] was 36.17 CELLS/uL, the “ABSOLUTE SEGMENTED NEUTROPHIL” value [1] was 575 CELLS/uL and the BASOPHIL [1] was 0%. The EOSINOPHIL [1] was 0%, the “ERYTHROCYTE COUNT” value [1] was 5.14 x10E6/uL and the HEMATOCRIT [1] was 33.22%. For the same compound, the HEMOGLOBIN [1] was 12.97 G/DL, the “LEUKOCYTE COUNT” value [1] was 8.47 x10E3/uL and the LYMPHOCYTE [1] was 93.17%. For the same compound, the “MEAN CORPUSCULAR HEMOGLOBIN” value [1] was 25.28 pg, the “MEAN CORPUSCULAR HEMOGLOBIN CONCENTRATION” value [1] was 39.05 G/DL and the “MEAN CORPUSCULAR VOLUME” value [1] was 64.75 fL. The MONOCYTE [1] was 0.33%, the NEUTROPHIL [1] was 6.5% and the “NUCLEATED RED BLOOD CELLS” value [1] was 0 /100WBC. For the same compound, the “ALANINE AMINOTRANSFERASE” value [1] was 61.67 u/L, the “ALKALINE PHOSPHATASE” value [1] was 292.33 u/L and the “BLOOD UREA NITROGEN” value [1] was 11 mg/dL. For the same compound, the “CARBON DIOXIDE” value [1] was 34.67 mmol/L, the CHOLESTEROL [1] was 71.17 mg/dL and the “CREATINE PHOSPHOKINASE” value [1] was 554.5 u/L. The CREATININE [1] was 0.31 mg/dL, the GLUCOSE [1] was 151 mg/dL and the “LACTATE DEHYDROGENASE” value [1] was 88.67 u/L. For the same compound, the LIPASE [1] was 18.83 u/L, the SODIUM [1] was 144.57 MEQ/L and the “TOTAL BILIRUBIN” value [1] was 0.17 mg/dL. The “TOTAL PROTEIN” value [1] was 5.8 G/DL, the “URIC ACID” value [1] was 0.52 mg/dL and the “ABSOLUTE BASOPHIL” value [2] was 0 CELLS/uL. For the same compound, the “ABSOLUTE EOSINOPHIL” value [2] was 53.33 CELLS/uL, the “ABSOLUTE LYMPHOCYTE” value [2] was 7739.83 CELLS/uL and the “ABSOLUTE MONOCYTE” value [2] was 74.83 CELLS/uL. For the same compound, the “ABSOLUTE SEGMENTED NEUTROPHIL” value [2] was 832 CELLS/uL, the BASOPHIL [2] was 0% and the EOSINOPHIL [2] was 0.67%. For the same compound, the “ERYTHROCYTE COUNT” value [2] was 5.55 x10E6/uL, the HEMATOCRIT [2] was 34.77% and the “LEUKOCYTE COUNT” value [2] was 8.7 x10E3/uL. For the same compound, the LYMPHOCYTE [2] was 89.17%, the “MEAN CORPUSCULAR HEMOGLOBIN” value [2] was 24.6 pg and the “MEAN CORPUSCULAR HEMOGLOBIN CONCENTRATION” value [2] was 39.2 G/DL. The “MEAN CORPUSCULAR VOLUME” value [2] was 62.78 fL, the MONOCYTE [2] was 0.67% and the NEUTROPHIL [2] was 9.5%. For the same compound, the “NUCLEATED RED BLOOD CELLS” value [2] was 0 /100WBC, the “ALANINE AMINOTRANSFERASE” value [2] was 50 u/L and the “ALKALINE PHOSPHATASE” value [2] was 271.17 u/L. The “ASPARTATE AMINOTRANSFERASE” value [2] was 84.17 u/L, the “BLOOD UREA NITROGEN” value [2] was 13.33 mg/dL and the “CARBON DIOXIDE” value [2] was 27 mmol/L. The CHOLESTEROL [2] was 68 mg/dL, the “CREATINE PHOSPHOKINASE” value [2] was 313.67 u/L and the CREATININE [2] was 0.21 mg/dL. For the same compound, the GLUCOSE [2] was 163 mg/dL, the “LACTATE DEHYDROGENASE” value [2] was 75.67 u/L and the LIPASE [2] was 11.5 u/L. The SODIUM [2] was 143.1 MEQ/L, the “TOTAL BILIRUBIN” value [2] was 0.2 mg/dL and the “TOTAL PROTEIN” value [2] was 6.08 G/DL. For the same compound, the “URIC ACID” value [2] was 0.68 mg/dL, the “ABSOLUTE BASOPHIL” value [3] was 0 CELLS/uL and the “ABSOLUTE EOSINOPHIL” value [3] was 0 CELLS/uL. The “ABSOLUTE LYMPHOCYTE” value [3] was 2936 CELLS/uL, the “ABSOLUTE MONOCYTE” value [3] was 0 CELLS/uL and the “ABSOLUTE SEGMENTED NEUTROPHIL” value [3] was 230.67 CELLS/uL. The BASOPHIL [3] was 0%, the EOSINOPHIL [3] was 0% and the “ERYTHROCYTE COUNT” value [3] was 5.1 x10E6/uL. For the same compound, the HEMATOCRIT [3] was 32.43%, the HEMOGLOBIN [3] was 12.87 G/DL and the “LEUKOCYTE COUNT” value [3] was 3.17 x10E3/uL. For the same compound, the LYMPHOCYTE [3] was 92.67%, the “MEAN CORPUSCULAR HEMOGLOBIN” value [3] was 25.23 pg and the “MEAN CORPUSCULAR HEMOGLOBIN CONCENTRATION” value [3] was 39.67 G/DL. For the same compound, the “MEAN CORPUSCULAR VOLUME” value [3] was 63.63 fL, the MONOCYTE [3] was 0% and the NEUTROPHIL [3] was 7.33%. For the same compound, the “NUCLEATED RED BLOOD CELLS” value [3] was 0 /100WBC, the “ALANINE AMINOTRANSFERASE” value [3] was 53.33 u/L and the “ALKALINE PHOSPHATASE” value [3] was 266 u/L. For the same compound, the “ASPARTATE AMINOTRANSFERASE” value [3] was 81.33 u/L, the “BLOOD UREA NITROGEN” value [3] was 16.67 mg/dL and the “CARBON DIOXIDE” value [3] was 31.33 mmol/L. For the same compound, the CHOLESTEROL [3] was 79.33 mg/dL, the “CREATINE PHOSPHOKINASE” value [3] was 216.67 u/L and the CREATININE [3] was 0.18 mg/dL. For the same compound, the GLUCOSE [3] was 145 mg/dL, the “LACTATE DEHYDROGENASE” value [3] was 77.67 u/L and the LIPASE [3] was 24 u/L. For the same compound, the SODIUM [3] was 143.8 MEQ/L, the “TOTAL BILIRUBIN” value [3] was 0.1 mg/dL and the “TOTAL PROTEIN” value [3] was 5.87 G/DL. The “URIC ACID” value [3] was 0.5 mg/dL.
